From ChEMBL document CHEMBL3045361, “Novel GABA-AT inhibitors: QSAR and docking based virtual screening of phenyl substituted -phenyl ethylidene hydrazine analogues” (Med Chem Res, 2011)

Each compound was assayed against 4-aminobutyrate aminotransferase, mitochondrial (Homo sapiens) (UniProt P80404) (assay: Inhibition of GABA-AT (unknown origin)). Conditions: concentration not given here.
Parameters: concentration or dose not given beside the values

Chain of 4-aminobutyrate aminotransferase, mitochondrial (Homo sapiens) (P80404 whole entry): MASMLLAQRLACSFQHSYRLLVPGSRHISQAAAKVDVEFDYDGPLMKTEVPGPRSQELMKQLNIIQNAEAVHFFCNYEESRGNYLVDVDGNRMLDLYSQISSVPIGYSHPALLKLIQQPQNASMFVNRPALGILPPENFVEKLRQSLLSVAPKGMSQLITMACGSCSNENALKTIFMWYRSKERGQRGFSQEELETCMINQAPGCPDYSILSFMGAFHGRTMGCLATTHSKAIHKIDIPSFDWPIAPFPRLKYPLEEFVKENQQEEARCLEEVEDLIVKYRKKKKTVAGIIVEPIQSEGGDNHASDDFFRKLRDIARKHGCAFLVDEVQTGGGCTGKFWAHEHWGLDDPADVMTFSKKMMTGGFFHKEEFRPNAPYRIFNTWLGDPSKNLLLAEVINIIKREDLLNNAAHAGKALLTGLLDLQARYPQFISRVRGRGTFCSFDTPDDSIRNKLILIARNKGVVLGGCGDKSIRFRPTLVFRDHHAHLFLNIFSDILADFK

Row | inhibition | SMILES
1 | 66.6% | COc1ccc(C/C=N/N)cc1
2 | 70.4% | Cc1ccc(C/C=N/N)cc1
3 | 61.6% | N/N=C/Cc1ccc(F)cc1
4 | 77.6% | COc1cccc(C/C=N/N)c1
5 | 33.2% | N/N=C/Cc1ccc(C(F)(F)F)cc1
6 | 54.2% | N/N=C/Cc1ccc(Cl)cc1
7 | 60.1% | COc1ccccc1C/C=N/N

Second part, the compound before the results:

Row | SMILES | inhibition
8 | N/N=C/Cc1ccccc1 | 75.4%
9 | N/N=C/Cc1ccccc1Cl | 56.1%
10 | N/N=C/Cc1cccc(C(F)(F)F)c1 | 76%
11 | Cc1ccccc1C/C=N/N | 51.3%
12 | N/N=C/Cc1ccccc1C(F)(F)F | 46.3%
13 | N/N=C/Cc1cccc(Cl)c1 | 74.9%
14 | N/N=C/Cc1cccc(F)c1 | 72.5%
15 | Cc1cccc(C/C=N/N)c1 | 75.4%
16 | N/N=C/Cc1ccc(Cl)cc1Cl | 59%
17 | N/N=C/Cc1ccccc1F | 62.9%
